How the values were obtained:
[1] = tested on: IL-17A secreted from antiCD3/CD28 stimulated Peripheral Blood Mononuclear cells (PBMC); experiment: Peripheral Blood Mononucleocyte Cell Assay (PBMC Assay-IL-17); type: cell-based; conditions: inhibition of IL-17A release, CD3/CD28 bead stimulated human PBMC, 48 hours; read-out: mean pIC50 (converted)
Source text: Peripheral Blood Mononucleocyte Cell Assay (PBMC Assay-IL-17)
RORs (Retinoic Acid Related Orphan Receptors) are members of the class 1 nuclear receptor family. RORs regulate gene transcription by binding to specific DNA response element (RORE) as a monomer and have critical roles of in development, immunity, circadian rhythm, and cellular metabolism (recently reviewed by A Jetten, Nuclear Receptor Signaling, 2009, 7, 1-32) One member of this nuclear receptor family, RORγt, has been identified as a regulator of differentiation and development of IL-17-expressing human and mouse CD4+ T cells, so called Th17 cells which play a role in both host defence and inflammatory disorders. RORγt is also required for transcription of the genes encoding IL-17A and IL-17F in iNKT, NKT (Immunol 2009, 2(5), 383-392, J. Immunol, 2008, 180, 51(67), 5171-5171), γδTcells (J. Resp and Crit. Care Med 2010, 182(4), 464-476), CD8^+ Tcell (J Leukocyte Biol, 2007, 82(2), 354-360) and finally CD4-CD8-TCRαβ^+ T cells (J. Immunol. 2008, 181 8761-8766). Additional immune cells such as eosinophils, neutrophils and macrophages can also be source of IL17A in some allergic inflammation related to asthma (J Allergy Clin Immunol 2001, 108, 430-438; J. Immunol, 2008, 181, 6117-6124; Immunity, 2004, 21, 467-476), however, the link with RORγt has not yet been confirmed in the literature.
This assay is designed to measure levels of IL-17A secreted from antiCD3/CD28 stimulated frozen Peripheral Blood Mononuclear cells (PBMC) isolated from human blood with the aim of identifying inhibitors of IL-17A release.
• 1. Ensure no external endotoxin is present in media and reagents used in the assay. • 2. The compounds for screening are dispensed into a master plate at 10 mM top concentration which are serially diluted 1:3 across 11 points in DMSO, then 500 nl is transferred into a 384-well flat-bottomed Greiner plate to which 50 ul of cell suspension is added: for the single shot screening the highest concentration of compound is 10^−5M; for 11 point full curve dose response studies the highest concentration is […]. • Controls: • As a low control, DMSO (as supplied, for example, by VWR) (final concentration 1%) in column 6 (16 points). • As a high control, 5-(4-fluorophenyl)-2-ureidothiophene-3-carboxamide (obtainable from, for example, Sigma) at a final concentration of 10^−4 M in DMSO should be used in column 18 (16 points). • If the compounds dispensed earlier than the day of the assay, they should be kept at −20° C.
Protocol Step 2: Day 1: Thawing and Handing of PBMC • 1. Thaw PBMC in the vial using water bath (37° C.). […] Transfer the contents of the vial into 50 mL Falcon tube. • 3. Add 10 mL of Assay Media drop by drop to decrease the concentration of DMSO (as supplied, for example, by VWR) in the freezing media gradually. • 4. Spin down the cells in a centrifuge (1000 rpm-5 mins). • 5. Decant the supernatant. • 6. Re-suspend the cells in 10 mL of Assay Media. • 7. Transfer of 0.1 mL of suspension into Cedex counting tube. • 8. Add 0.9 mL of media to achieve volume of the suspension for counting up to 1 mL. Count the cells on Cedex using 1:10 dilution factor settings. • 9. Make the cell suspension at the concentration 8×10^5 cells/mL. to give a final number of 40,000 cells/well. Protocol Step 3: Day 1: Stimulation of PBMC with CD3/CD28 beads • 1. Add well mixed CD3/CD28 Dynabeads (as supplied, for example, by Dynal) to achieve ratio bead:cell=2:1 (i.e a dilution of 1 in 20). Mix thoroughly. • 2. Dispense the suspension into the 384 Assay Plates using Multidrop (50 ul per well). • If the volume of cell suspension is large, mix the suspension after dispensing into every other plate. • 3. Cover the plates with the lids and place them to the humidified incubator (37° C., 5% CO2) for 48 hours. Protocol Step 4: Day 2: MSD plates preparation • 1. […]

[2] = biological target: T1, Human RORγ Ligand Binding Domain (RORγ-LBD) (Homo sapiens, UniProt P51449); experiment: Dual Fluorescence Energy Transfer (FRET) assay: RORγ-LBD / SRC1(2) co-activator peptide interaction; type: biochemical; conditions: RORγ-LBD/SRC1(2) peptide interaction, read-out: mean pIC50 (converted)
T1 construct: His6 plus thrombin site) (N); made in house; host or cells: E. coli BL21(DE3), modified pET21a
T1 sequence (P51449 263-518): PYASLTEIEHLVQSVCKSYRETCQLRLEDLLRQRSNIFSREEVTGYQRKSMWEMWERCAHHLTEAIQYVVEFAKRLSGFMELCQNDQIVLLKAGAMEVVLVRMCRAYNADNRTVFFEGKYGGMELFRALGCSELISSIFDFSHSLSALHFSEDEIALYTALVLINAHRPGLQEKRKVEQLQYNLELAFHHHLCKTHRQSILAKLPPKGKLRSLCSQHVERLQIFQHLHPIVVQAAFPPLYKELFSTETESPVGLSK
Source text: Dual Fluorescence Energy Transfer (FRET) Assay
This assay is based on the knowledge that nuclear receptors interact with cofactors (transcription factors) in a ligand dependent manner. RORγ is a typical nuclear receptor in that it has an AF2 domain in the ligand binding domain (LBD) which interacts with co-activators. The sites of interaction have been mapped to the LXXLL (SEQ ID NO:1) motifs in the co-activator SRC1(2) sequences. Short peptide sequences containing the LXXLL (SEQ ID NO:1) motif mimic the behavior of full-length co-activator.
This assay measures ligand-mediated interaction of the co-activator peptide with the purified bacterial-expressed RORγ ligand binding domain (RORγ-LBD) to indirectly assess ligand binding. RORγ has a basal level of interaction with the co-activator SRC1(2) in the absence of ligand, Thus, it is possible to find ligands that inhibit or enhance the RORγ/SRC1(2) interaction.
Human RORγ Ligand Binding Domain (RORγ-LBD) was expressed in E. coli strain BL21(DE3) as an amino-terminal polyhistidine tagged fusion protein. DNA encoding this recombinant protein was sub-cloned into a modified pET21a expression vector (Novagen). A modified polyhistidine tag (MKKHHHHHHLVPRGS) (SEQ ID NO:2)was fused in frame to residues 263-518 of the human RORγ sequence.
Approximately 50 g E. coli cell pellet was resuspended in 300 mL of lysis buffer (30 mM imidazole pH 7.0 and 150 mM NaCl). Cells were lysed by sonication and cell debris was removed by centrifugation for 30 minutes at 20,000 g at 4° C. The cleared supernatant was filtered through a 0.45 uM cellulose acetate membrane filter. The clarified lysate was loaded onto a column (XK-26) packed with ProBond Nickel Chelating resin (InVitrogen), pre-equilibrated with 30 mM imidazole pH 7.0 and 150 mM NaCl. After washing to baseline absorbance with the equilibration buffer, the column was developed with a gradient from 30 to 500 mM imidazole pH 7.0. Column fractions containing the RORγ-LBD protein were pooled and concentrated to a volume of 5 mLs. The concentrated protein was loaded onto a Superdex 200 column pre-equilibrated with 20 mM Tris-Cl pH 7.2 and 200 mM NaCl. The fractions containing the desired RORγ-LBD protein were pooled together.
Purified RORγ-LBD was buffer exchanged by exhaustive dialysis [3 changes of at least 20 volumes (>8000×)] against PBS [100 mM NaPhosphate, pH 8 and 150 mM NaCl]. The concentration of RORγ-LBD was approximately 30 uM in PBS. Five-fold molar excess of NHS-LC-Biotin (Pierce) was added in a minimal volume of PBS. This solution was incubated with occasional gentle mixing for 60 minutes at ambient room temperature. The modified RORγ-LBD was dialyzed against 2 buffer changes—TBS pH 8.0 containing 5 mM DTT, 2 mM EDTA and 2% sucrose—each at least 20 times of the volume. The modified protein was distributed into aliquots, frozen on dry ice and stored at −80° C. The biotinylated RORγ-LBD was subjected to mass spectrometric analysis to reveal the extent of modification by the biotinylation reagent. In general, approximately 95% of the protein had at least a single site of biotinylation and the overall extent of biotinylation followed a normal distribution of multiple sites ranged from one to five.
A biotinylated peptide corresponding to amino acid 676 to 700 ([…]) (SEQ ID NO:3)of the co-activator steroid receptor coactivator SRC1(2) was generated using similar method.
Biotinylated SRC1(2) solution was prepared by adding an appropriate amount of biotinylated SRC1(2) from the 100 uM stock solution to a buffer containing 10 mM of freshly added DTT from solid to give a final concentration of 40 nM. An appropriate amount of Europium labeled Streptavidin was then added to the biotinylated SRC1(2) solution in a tube to give a final concentration of 10 nM. The tube was inverted gently and incubated for 15 minutes at room temperature. […]

SMILES | IC50 [2] | IC50 [1]
CCCCc1ccc(N(CC(C)C)S(=O)(=O)c2ccc(OCc3c(C)noc3C)cc2)c(C)c1 [Product P23] | – | ≤ 1000 nM
Cc1ccc(C)c(N(CC(C)C)S(=O)(=O)c2ccc(OCc3c(C)noc3C)cc2)c1 [Product P37] | – | ≤ 1000 nM
Cc1cc(C)cc(N(CC(C)C)S(=O)(=O)c2ccc(OCc3c(C)noc3C)cc2)c1 [Product P118] | – | ≤ 1000 nM
Cc1ccc(N(CC(C)C)S(=O)(=O)c2ccc(OCc3ccncc3)cc2)c(C)c1 [Product P123] | – | ≤ 1000 nM
Cc1ccc(N(CC(C)C)S(=O)(=O)c2ccc(COCc3ccncc3)cc2)c(C)c1 [Product P128] | – | ≤ 1000 nM
Cc1ccc(N(CC(C)C)S(=O)(=O)c2ccc(OCc3ncn(C)n3)cc2)c(C)c1 [Product P132] | – | ≤ 1000 nM
Cc1ccccc1N(CC(C)C)S(=O)(=O)c1ccc(OCc2c(C)noc2C)cc1 [Product P137] | – | ≤ 1000 nM
Cc1ccc(N(CC(C)C)S(=O)(=O)c2ccc(OCc3ccncn3)cc2)c(C)c1 [Product P143] | – | ≤ 1000 nM
Cc1cc(Br)ccc1N(CC(C)C)S(=O)(=O)c1ccc(OCc2c(C)noc2C)cc1 [Product P144] | – | ≤ 1000 nM
Cc1ccc(N(CC(C)C)S(=O)(=O)c2ccc(OCc3ncnn3C)cc2)c(C)c1 [Product P147] | – | ≤ 1000 nM
Cc1cc(C(C)(C)O)ccc1N(CC(C)C)S(=O)(=O)c1ccc(OCc2c(C)noc2C)cc1 [Product P155, 4-((3,5-dimethylisoxazol-4-yl)methoxy)-N-(4-(2-hydroxypropan-2-yl)-2-methylphenyl)-N-isobutylbenzenesulfonamide] | – | ≤ 1000 nM
Cc1ccc(N(CC(C)C)S(=O)(=O)c2ccc(C(=O)O)cc2)c(C)c1 [Product P179, 4-(N-(2,4-dimethylphenyl)-N-isobutylsulfamoyl)benzoic acid] | – | > 100000 nM

Second part, led by results:

IC50 [2] | SMILES | IC50 [1]
≤ 15.8 nM | Cc1ccc(N(CC(C)C)S(=O)(=O)c2ccc(OCc3c(C)noc3C)cc2)c(C)c1 [Product P24] | ≤ 1000 nM
≤ 15.8 nM | Cc1noc(C)c1COc1ccc(S(=O)(=O)N(CC(C)C)c2ccc(C(C)C)cc2)cc1 [Product P28] | ≤ 1000 nM
≤ 15.8 nM | Cc1noc(C)c1COc1ccc(S(=O)(=O)N(CC(C)C)c2ccc(Cl)cc2)cc1 [Product P30] | ≤ 1000 nM
≤ 15.8 nM | CCCc1ccc(N(CC(C)C)S(=O)(=O)c2ccc(OCc3c(C)noc3C)cc2)cc1 [Product P31] | ≤ 1000 nM
≤ 15.8 nM | Cc1ccc(C(F)(F)F)cc1N(CC(C)C)S(=O)(=O)c1ccc(OCc2c(C)noc2C)cc1 [Product P33] | ≤ 1000 nM
≤ 15.8 nM | Cc1ccc(N(CC(C)C)S(=O)(=O)c2ccc(OCc3ccncc3)cc2)c(C)c1 [Product P98] | –
≤ 15.8 nM | Cc1ccc(F)cc1N(CC(C)C)S(=O)(=O)c1ccc(OCc2ccncc2)cc1 [Product P104] | –
≤ 15.8 nM | Cc1noc(C)c1COc1ccc(S(=O)(=O)N(CC(C)C)c2ccc(Cl)c(Cl)c2)cc1 [Product P114] | –
≤ 15.8 nM | Cc1ccc(N(CC(C)C)S(=O)(=O)c2ccc(CCc3ccncc3)cc2)c(C)c1 [Product P140] | ≤ 1000 nM
≤ 15.8 nM | Cc1ccc(N(CC(C)C)S(=O)(=O)c2ccc(OCCc3ccncc3)cc2)c(C)c1 [Product P141] | –
≤ 15.8 nM | Cc1ccc(N(CC(C)C)S(=O)(=O)c2ccc(OCCc3c(C)noc3C)cc2)c(C)c1 [Product P142] | –
≤ 15.8 nM | Cc1ccc(N(CC(C)C)S(=O)(=O)c2ccc(OCC(O)c3ccncc3)cc2)c(C)c1 (centres unmarked) [Product P150, N-(2,4-dimethylphenyl)-4-(2-hydroxy-2-(pyridin-4-yl)ethoxy)-N-isobutylbenzenesulfonamide] | –
≤ 15.8 nM | CCc1ccc(N(CC(C)C)S(=O)(=O)c2ccc(OCc3c(C)noc3C)cc2)cc1 [Product P160, 4-((3,5-dimethylisoxazol-4-yl)methoxy)-N-(4-ethylphenyl)-N-isobutylbenzenesulfonamide] | ≤ 1000 nM

— US9150508B2, “Sulfonamide compounds and their use in the modulation retinoid-related orphan receptor” (Glaxo Group Limited, priority 2011, dated 2015)
